Measurements from EP0007672A1, “Isocyanoalkenes, process and useful intermediates for their preparation, pharmaceutical and fungicidal preparations containing those isocyanoalkenes and the use of the fungicidal preparations in agriculture” (GIST-BROCADES N.V., priority 1978, dated 1980).
Values after ≈ are worked out from the molar mass of the structure shown. Read-outs that look alike come from different tables or passages of the source.

Experiments:
Assay in all cases: MIC (Minimum Inhibitory Concentration)
Format in all cases: cell-based
Candida albicans = system: Candida albicans
[1] = system: Trichophyton soudanese joyeux; settings: read-out: MIC values
Trichophyton violoceum = settings: read-out: MIC values
Trichophyton rubrum = system: Trichophyton rubrum
[2] = system: Trichophyton schoenleinii; settings: read-out: MIC values
Fusarium solani = settings: read-out: MIC values
Fusarium (tulip) = Fusarium (tulip) A 3253
Rhizoctonia solani = settings: read-out: MIC values
Trichophyton quickeaneum = settings: read-out: MIC values
[3] = system: Trichophyton mentagrophytus
Fusarium (bulb) = Fusarium (bulb) A 3252
Trichophyton equinum = system: Trichophyton equinum

[C-]#[N+]C(=Cc1ccccc1)S(=O)(=O)c1ccc(C)cc1 [Example 1, 1-isocyano-2-phenyl-1-(4-toluenesulphonyl)-ethene]
MIC (Candida albicans; Candida albicans A 7, read-out: MIC values): 1.5 µg/mL (≈ 5.29 µM)
MIC (Candida albicans; Candida albicans A 3140, read-out: MIC values): 12.5 µg/mL (≈ 44.1 µM)
MIC (Candida albicans; Candida albicans A 3141, read-out: MIC values): 12.5 µg/mL (≈ 44.1 µM)
MIC (Candida albicans; Candida albicans A 3142, read-out: MIC values): 12.5 µg/mL (≈ 44.1 µM)
MIC (Candida albicans; Candida albicans A 3143, read-out: MIC values): 12.5 µg/mL (≈ 44.1 µM)
MIC (Candida albicans; Candida albicans A 3144, read-out: MIC values): 12.5 µg/mL (≈ 44.1 µM)
MIC (Candida albicans; Candida albicans A 3145, read-out: MIC values): 12.5 µg/mL (≈ 44.1 µM)
MIC (Candida albicans; Candida albicans A 3165, read-out: MIC values): 25 µg/mL (≈ 88.2 µM)
MIC (Candida albicans; Candida albicans A 3166, read-out: MIC values): 12.5 µg/mL (≈ 44.1 µM)
MIC (Candida albicans; Candida albicans A 3167, read-out: MIC values): 25 µg/mL (≈ 88.2 µM)
MIC (Candida albicans; Candida albicans A 3168, read-out: MIC values): 12.5 µg/mL (≈ 44.1 µM)
MIC (Candida albicans; Candida albicans A 3169, read-out: MIC values): 12.5 µg/mL (≈ 44.1 µM)
MIC (Candida albicans; Candida albicans A 3171, read-out: MIC values): 12.5 µg/mL (≈ 44.1 µM)
MIC (Candida albicans; Candida albicans A 3184, read-out: MIC values): 12.5 µg/mL (≈ 44.1 µM)
MIC (Candida albicans; Candida albicans A 3190, read-out: MIC values): 6 µg/mL (≈ 21.2 µM)
MIC (Candida albicans; Candida albicans A 3191, read-out: MIC values): 12.5 µg/mL (≈ 44.1 µM)
MIC (Candida albicans; Candida albicans A 3192, read-out: MIC values): 6 µg/mL (≈ 21.2 µM)
MIC (Candida albicans; Candida albicans A 3194, read-out: MIC values): 25 µg/mL (≈ 88.2 µM)
MIC (Candida albicans; Candida albicans A 3196, read-out: MIC values): 12.5 µg/mL (≈ 44.1 µM)
MIC ([1]; Trichophyton soudanese joyeux 440-63): 12.5 µg/mL (≈ 44.1 µM)
MIC (Trichophyton violoceum; Trichophyton violoceum 442-62): 0.1 µg/mL (≈ 0.353 µM)
MIC (Trichophyton rubrum; Trichophyton rubrum 494-62, read-out: MIC values): 0.1 µg/mL (≈ 0.353 µM)
MIC ([2]; Trichophyton schoenleinii 435-63): 0.1 µg/mL (≈ 0.353 µM)
MIC (Fusarium solani; Fusarium solani A 3245): 50 µg/mL (≈ 176 µM)
MIC (Fusarium (tulip)): 50 µg/mL (≈ 176 µM)
MIC (Rhizoctonia solani; Rhizoctonia solani 200-25): 4.5 µg/mL (≈ 15.9 µM)
MIC (Trichophyton quickeaneum; Trichophyton quickeaneum A 2040): 3 µg/mL (≈ 10.6 µM)
MIC ([3]; Trichophyton mentagrophytus 367-68, read-out: MIC values): 1.5 µg/mL (≈ 5.29 µM)
MIC ([3]; Trichophyton mentagrophytus 421-67, read-out: MIC values): 1.5 µg/mL (≈ 5.29 µM)
MIC ([3]; Trichophyton mentagrophytus A 3252, read-out: MIC values): 1.5 µg/mL (≈ 5.29 µM)
MIC ([3]; Trichophyton mentagrophytus R 177, read-out: MIC values): 6 µg/mL (≈ 21.2 µM)
MIC ([3]; Trichophyton mentagrophytus R 178, read-out: MIC values): > 100 µg/mL
MIC ([3]; Trichophyton mentagrophytus RRL 305, read-out: MIC values): 6 µg/mL (≈ 21.2 µM)
MIC (Fusarium (bulb)): > 100 µg/mL
MIC (Trichophyton equinum; Trichophyton equinum 182-76, read-out: MIC values): 3 µg/mL (≈ 10.6 µM)
MIC (Trichophyton equinum; Trichophyton equinum 856-71, read-out: MIC values): 3 µg/mL (≈ 10.6 µM)

[C-]#[N+]C(=C1CCCCC1)S(=O)(=O)c1ccc(C)cc1 [Example 7, a-cyclohexylidene-a-(4-toluenesulphonyl)-methylisocyanide]
MIC (Candida albicans; read-out: MIC values, Candida albicans A 7): 0.8 µg/mL (≈ 2.91 µM)
MIC (Candida albicans; read-out: MIC values, Candida albicans A 3140): 3 µg/mL (≈ 10.9 µM)
MIC (Candida albicans; read-out: MIC values, Candida albicans A 3141): 12.5 µg/mL (≈ 45.4 µM)
MIC (Candida albicans; read-out: MIC values, Candida albicans A 3142): 12.5 µg/mL (≈ 45.4 µM)
MIC (Candida albicans; read-out: MIC values, Candida albicans A 3143): 6 µg/mL (≈ 21.8 µM)
MIC (Candida albicans; read-out: MIC values, Candida albicans A 3144): 6 µg/mL (≈ 21.8 µM)
MIC (Candida albicans; read-out: MIC values, Candida albicans A 3145): 6 µg/mL (≈ 21.8 µM)
MIC (Candida albicans; read-out: MIC values, Candida albicans A 3165): 6 µg/mL (≈ 21.8 µM)
MIC (Candida albicans; read-out: MIC values, Candida albicans A 3166): 6 µg/mL (≈ 21.8 µM)
MIC (Candida albicans; read-out: MIC values, Candida albicans A 3167): 6 µg/mL (≈ 21.8 µM)
MIC (Candida albicans; read-out: MIC values, Candida albicans A 3168): 6 µg/mL (≈ 21.8 µM)
MIC (Candida albicans; read-out: MIC values, Candida albicans A 3169): 6 µg/mL (≈ 21.8 µM)
MIC (Candida albicans; read-out: MIC values, Candida albicans A 3171): 6 µg/mL (≈ 21.8 µM)
MIC (Candida albicans; read-out: MIC values, Candida albicans A 3184): 3 µg/mL (≈ 10.9 µM)
MIC (Candida albicans; read-out: MIC values, Candida albicans A 3190): 3 µg/mL (≈ 10.9 µM)
MIC (Candida albicans; read-out: MIC values, Candida albicans A 3191): 6 µg/mL (≈ 21.8 µM)
MIC (Candida albicans; read-out: MIC values, Candida albicans A 3192): 6 µg/mL (≈ 21.8 µM)
MIC (Candida albicans; read-out: MIC values, Candida albicans A 3194): 6 µg/mL (≈ 21.8 µM)
MIC (Candida albicans; read-out: MIC values, Candida albicans A 3196): 12.5 µg/mL (≈ 45.4 µM)
MIC ([1]; Trichophyton): 12.5 µg/mL (≈ 45.4 µM)
MIC (Trichophyton violoceum; Trichophyton): 0.2 µg/mL (≈ 0.726 µM)
MIC (Trichophyton rubrum; read-out: MIC values, Trichophyton rubrum 494-62): 0.8 µg/mL (≈ 2.91 µM)
MIC (Trichophyton rubrum; read-out: MIC values, Trichophyton rubrum A 810): 0.8 µg/mL (≈ 2.91 µM)
MIC ([2]; Trichophyton schoenleinii): 0.2 µg/mL (≈ 0.726 µM)
MIC (Fusarium solani; Fusarium solani): 12.5 µg/mL (≈ 45.4 µM)
MIC (Fusarium (tulip)): 12.5 µg/mL (≈ 45.4 µM)
MIC (Rhizoctonia solani; Rhizoctonia solani): 1.5 µg/mL (≈ 5.45 µM)
MIC (Trichophyton quickeaneum; Trichophyton): 0.8 µg/mL (≈ 2.91 µM)
MIC ([3]; read-out: MIC values, Trichophyton mentagrophytus 367-68): 0.8 µg/mL (≈ 2.91 µM)
MIC ([3]; read-out: MIC values, Trichophyton mentagrophytus 421-67): 1.5 µg/mL (≈ 5.45 µM)
MIC ([3]; read-out: MIC values, Trichophyton mentagrophytus A 3252): 0.8 µg/mL (≈ 2.91 µM)
MIC ([3]; read-out: MIC values, Trichophyton mentagrophytus R 177): 3 µg/mL (≈ 10.9 µM)
MIC ([3]; read-out: MIC values, Trichophyton mentagrophytus R 178): 12.5 µg/mL (≈ 45.4 µM)
MIC ([3]; read-out: MIC values, Trichophyton mentagrophytus RRL 305): 1.5 µg/mL (≈ 5.45 µM)
MIC (Fusarium (bulb)): 18.8 µg/mL (≈ 68.3 µM)
MIC (Trichophyton equinum; read-out: MIC values, Trichophyton equinum 182-76): 3 µg/mL (≈ 10.9 µM)
MIC (Trichophyton equinum; read-out: MIC values, Trichophyton equinum 856-71): 3 µg/mL (≈ 10.9 µM)
